The test system of series [1] is NOD mice with recent onset diabetes. Put plainly: Modified vs unmodified gastrin in combination with GLP-1 in preventing diabetes progression in NOD mice with recent onset diabetes. As to conditions: in combination with GLP-1 (100 μg/kg/day); gastrin compound 3 μg/kg/day gastrin equivalent i.p. daily for 14 days; compared to GLP-1 with native gastrin (Compound B). It counts as in vivo. From the text:
In this example, the effect of treatment by a combination of GLP-1 and unmodified gastrin and GLP-1 and modified gastrin compounds/conjugates were examined in NOD mice with recent onset diabetes, to determine whether administration of both GLP-1 and gastrin would prevent severe hyperglycemia as well as increase pancreatic insulin content in NOD mice with recent-onset diabetes. The GLP-1 used was GLP-1 which is the biologically active fragment of human/mouse GLP-1 (having residues at positions 7-36 compared to the precursor from which the fragment is processed; obtained from Bachem H6795). […]
Non-obese diabetic (NOD) female mice, ages 12-14 weeks, were monitored for development of onset of diabetes (fasting blood glucose >8.0 to 15 mmol/l), and within 48 hours after onset of symptoms, four groups of mice were each treated as follows: one group was treated with vehicle only; and the other group was administered 100 μg/kg/day of GLP-1, and the remaining groups were treated with combination of GLP-1 (100 μg/kg/day) and gastrin compound (3 μg/kg/day gastrin equivalent), each treatment administered via the intraperitoneal route daily.
Therapy was administered for 14 days. Animals were monitored weekly for fasting blood glucose (FBG) levels. FBG levels were measured at about 12 hours after food had been withdrawn, and 24 hours after the last peptide or vehicle injection. […]

Another series in a line: in vivo. As to conditions: male, cynomolgus monkey, iv.
The conditions of series [2]: cited from earlier work.

Like-named read-outs stand apart in the source and are kept apart here. Where a SMILES comes first, the peptide text is derived from it. Where no end group is shown, it is not given here. [ ]: non-standard residue; d: D form. pGlu = O=C1CC[C@@H](C(=O)O)N1

Protocol for in vivo: Male animals were used in the example. […] The dosing solutions for intravenous injection were administered as a single bolus dose via the saphenous vein at a dose volume of 1 mL/kg. A 0.2 mL saline flush was administered following dosing in order to ensure administration of the complete dose volume. The actual volume administered to each animal was based on the animal's most recent body weight.
Serial blood samples (approximately 0.5 ml per time point) were collected via the brachial or femoral vein at the following time points: 0 (pre-dose), 1, 3, 5, 10, 15, 30 minutes, 1, 2, and 4 hours post dose.
Each sample was collected into a tube containing EDTA and kept on wet ice pending centrifugation. The samples were centrifuged under refrigeration for a minimum of 10 minutes at 1, 500 g (RCF) and the resultant plasma was transferred into duplicate tubes and placed on dry ice. All samples were stored frozen for PK analysis as described below.
Gastrin in plasma samples was measured with a well established competitive radioimmunoassay for the quantitative determination of gastrin (Russell et al., Postgraduate Medical Journal 52:645, 1976). The antibody used in the assay was raised in rabbits against synthetic human gastrin I conjugated with carbodiimide to bovine serum albumin. The antigen was labeled with ^125I and the presence of the antigen:antibody reactions were detected using a gamma counter.
To calculate pharmacokinetic parameters, blood levels of gastrin at each time point for every animal were entered in to Graphpad Prism 3.0 (GraphPad Software, San Diego, Calif., USA,_www.graphpad.com).

Take “Compound Q: human serum albumin conjugate of N-terminal Cys gastrin peptide residues 2-17 of SEQ ID NO: 4 with (GA)5 linker (GPWLEEEEEAYGWLDF; not fully specified (N-terminus, C-terminus); ends and bridges not checked; also: human serum albumin conjugate)”: in series [1], the “reducing blood glucose levels in diabetic animals” value is given as “more effecting in reducing blood glucose levels”.
The AUC is the area under the concentration-time curve, a measure of exposure. A higher AUC goes with more exposure. The Cmax is the maximum level reached in the sampled fluid or tissue. By Tmax is commonly meant the time from dosing to the highest level. A word on the half-life: it is the time in which the quantity being followed falls by half. Higher therefore signals slow decline. For `CC(C)C[C@H](NC(=O)[C@H](Cc1c[nH]c2ccccc12)NC(=O)CNC(=O)[C@H](Cc1ccc(O)cc1)NC(=O)[C@H](C)NC(=O)[C@H](CCC(=O)O)NC(=O)[C@H](CCC(=O)O)NC(=O)[C@H](CCC(=O)O)NC(=O)[C@H](CCC(=O)O)NC(=O)[C@H](CCC(=O)O)NC(=O)[C@H](CC(C)C)NC(=O)[C@H](Cc1c[nH]c2ccccc12)NC(=O)[C@@H]1CCCN1C(=O)CNC(=O)[C@@H]1CCC(=O)N1)C(=O)N[C@@H](CC(=O)O)C(=O)N[C@@H](Cc1ccccc1)C(N)=O` [Compound B] ([pGlu]GPWLEEEEEAYGWLDF-NH2), the AUC in the series “in vivo” (3 ug/kg) is 4.18 ng·h/mL; in “in vivo” (30 ug/kg) it was 42.1 ng·h/mL; in “in vivo” (cynomolgus, 10 ug/kg), 15.7 ng·h/mL. In addition, the Cmax in the series “in vivo” (3 ug/kg) was found to be 27 ng/mL; in “in vivo” (30 ug/kg), 268 ng/mL; in “in vivo” (cynomolgus, 10 ug/kg) it was 127 ng/mL. Further, the time to peak (Tmax) was 2 min in “in vivo” (3 ug/kg); 1 min in the series “in vivo” (30 ug/kg); 1 min in the series “in vivo” (cynomolgus, 10 ug/kg). For the same compound, the half-life was 5 min in the series “in vivo” (3 ug/kg, t ½); 4 to 5 min in “in vivo” (30 ug/kg, plasma t1/2); 5 min in “in vivo” (30 ug/kg, t ½); 4 min in the series “in vivo” (cynomolgus, 10 ug/kg, t ½).
On to “gastrin-34 ([pGlu]LGPQGPPHLVADPSKKQGPWLEEEEEAYGWMDF-NH2; ends and bridges not checked; UniProt P01350 59-92, looked up)”, for which the circulating half-life entry in series [2] (background statement) is “about 35 mins”.
Turning to “Compound E: gastrin peptide residues 2-17 of SEQ ID NO: 4 with N-terminal Cys residue, no linker (CGPWLEEEEEAYGWLDF; not fully specified (C-terminus); ends and bridges not checked)”, the “reducing blood glucose levels in diabetic animals” value in series [1] is “more effecting in reducing blood glucose levels”.
Turning to Gastrin-17, the circulating half-life in series [2] (in vivo) is 5 to 9 min.
